Experimental data from publication PMC10545790.
“And” between values parts separate entries of the source, which are not always exact repeats. Equal values may be shown once. “Also recorded” adds a separate entry of the source.

Test system: human hepatocellular carcinoma cells HepG2
Experiment: High Content Imaging of HepG2 cells: nuclei count, necrosis (PI), apoptosis (caspase 3/7)
Type: cell-based
Parameters: Nuclei Area wv1 / Mean nuclei area: unit not given here
Conditions: for Mean nuclei area / Mean nuclei intensity / % of early apoptotic cells (PI negative, caspase positive) / % of necrotic and late apoptotic cells (PI positive) / All Targets.PI negative.casp positive (%) / All Targets.PI positive (%) / Nuclei Area wv1 / Nuclei Intensity wv1 / Nuclei Count wv1 / % of necrotic and late apoptotic cells (PI positive); cell toxicity level / inhibition of cell proliferation (in words) / cytotoxic effects (in words) / effect on cell proliferation (in words): HepG2, 48 h; for Mean nuclei intensity: Hoechst 33342; for % of early apoptotic cells (PI negative, caspase positive) / % of necrotic and late apoptotic cells (PI positive) / % of necrotic and late apoptotic cells (PI positive); cell toxicity level: mean of 3 wells; for All Targets.PI negative.casp positive (%) / All Targets.PI positive (%) / Nuclei Area wv1 / Nuclei Intensity wv1: single well; for Nuclei Count wv1: single well (concentration from plate map the 5th table); for inhibition of cell proliferation (in words): 50 μM, nuclei count; for effect on HepG2 cell death / apoptosis compared with Vorinostat (in words): HepG2, 48 h, 1, 5 and 50 μM; for cytotoxic effects (in words) / effect on cell proliferation (in words): 1 and 5 μM
Method: proliferation and cell death mechanisms, using High Content Imaging assay. The following parameters were assessed: nuclei count to measure inhibiting of the proliferation; cell membrane permeability to assess general cytotoxicity and necrosis; caspase activation to test apoptosis. […]
Human hepatocellular carcinoma HepG2 cell line was used to test biological action of Vorinostat and its analogues. Cell line was obtained from Leibniz Institute DSMZ - German Collection of Microorganisms and Cell Cultures. Cells were cultured in DMEM medium (Hyclone, Cat# SH30003.04) supplemented with 10% fetal bovine serum (Sigma-Aldrich, Cat# F7524), 100 units/mL penicillin and 100 μg/mL streptomycin (Sigma-Aldrich, Cat# P4333).
Before plating, the cells were first washed with PBS and then trypsinized with 0.01% trypsin solution (Sigma-Aldrich, Cat# T4174) in DPBS. The appropriate volume of culture medium was placed in a flask to stop further trypsinization, then the cells were centrifugated at 200 x g for 4 min, resuspended in fresh complete medium and counted using a counting chamber after being stained with Trypan Blue. […]
μL total volume per well and incubated at 37 °C/5%CO2/95%RH overnight. Vorinostat and test compounds were dissolved in 100% DMSO at a concentration of 10 mM and stored at -20 °C as single-use aliquots. Next day 20 μL of medium with compounds was added to the cells to the final DMSO concentration […]. Treatment for 48 hours was performed under growth conditions.
Compounds were assessed at the final concentrations 1, 5 and 50 μM (each in triplicates - 3 wells, 9 fields of view per well). Staining for nuclei, apoptotic cells with activated caspase 3/7 and dead […]
cells with permeabilized membrane was performed for 30 min under growth conditions in staining […]
3/7 Detection Reagent (Invitrogen, Cat# C10423) and 1 μM Propidium Iodide (Invitrogen, Cat# P3566) in medium complete. The cells were imaged with InCell Analyzer 6500, 20x obj. Image […]
Data were analyzed in GraphPad Prism 9.
Supplementary Fig. 16. Workflow of multiplexed cells staining.
Multiplexed staining allows to test cell toxicity and distinguish between necrosis and apoptosis within one single experiment (Supplementary Fig. 16).
CellEvent Caspase-3/7 Green Detection Reagent labels cells with activated caspases. Propidium Iodide (PI) labels dead cells with permeabilized membrane. Hoechst-positive cells were counted to assess the % of cell toxicity. PI-positive cells are dead – this is a fraction of necrotic and late apoptotic cells, used for assessing of cytotoxicity/necrosis. Early apoptotic cells are caspase-positive, PI-negative because their membrane isn’t compromised yet. Percentages of cells of certain […]
background and comparing with overall number of cells.

Row | Compound | Mean nuclei area (1 uM) | Mean nuclei intensity (1 uM) [RFU] | % of early apoptotic cells (PI negative, caspase positive) (1 uM) [%] | % of necrotic and late apoptotic cells (PI positive) (1 uM) [%] | All Targets.PI negative.casp positive (%) (1 uM) | All Targets.PI positive (%) (1 uM) | Nuclei Area wv1 (1 uM) | Nuclei Count wv1 (1 uM) | Mean nuclei area (5 uM) | Mean nuclei intensity (5 uM) [RFU] | % of early apoptotic cells (PI negative, caspase positive) (5 uM) [%] | % of necrotic and late apoptotic cells (PI positive) (5 uM) [%] | All Targets.PI negative.casp positive (%) (5 uM) | All Targets.PI positive (%) (5 uM) | Nuclei Area wv1 (5 uM) | Nuclei Intensity wv1 (5 uM) | Nuclei Count wv1 (5 uM) | Mean nuclei area (50 uM) | Mean nuclei intensity (50 uM) [RFU] | % of early apoptotic cells (PI negative, caspase positive) (50 uM) [%] | also measured
1 | O=C(CCCCCCC(=O)NC12CCC(CC1)OC2)NO [Compound 88] | 117.1 | 2764.0 | 0.344 | 0.9 | 0.2791% and 0.3975% and 0.3542% | 1.031% and 0.9564% and 0.6961% | 117.054 and 118.289 and 116.039 | 8241 and 8051 and 8188 | 118.3 | 3381.0 | 0.463 | 0.8 | 0.548% and 0.4031% and 0.4377% | 0.8821% and 0.8306% and 0.721% | 119.866 and 117.043 and 117.864 | 3478.61 and 2783.26 and 3882.1 | 7482 and 8187 and 7767 | 129.6 | 3968.0 | 12.0 | Nuclei Intensity wv1 (1 uM): 2311.93 and 2195.12 and 3784.44; % of necrotic and late apoptotic cells (PI positive); cell toxicity level (50 uM): 18% and 18.5%; inhibition of cell proliferation (in words): inhibited cell proliferation at 50 μM concentration to the same level as Vorinostat; All Targets.PI negative.casp positive (%) (50 uM): 11.5569% and 11.4167% and 12.9144%; All Targets.PI positive (%) (50 uM): 19.3713% and 17.5096% and 18.5033%; Nuclei Area wv1 (50 uM): 130.383 and 125.337 and 133.198; Nuclei Intensity wv1 (50 uM): 4177.18 and 3221.5 and 4506.24; Nuclei Count wv1 (50 uM): 3340 and 3381 and 3167; effect on HepG2 cell death / apoptosis compared with Vorinostat (in words): active; cytotoxic effects (in words): did not demonstrate any significant cytotoxic effects; effect on cell proliferation (in words): did not have any significant effects
2 | O=C(CCCCCCC(=O)NC12CCC(CC1)CC2)NO [Compound 89] | 117.0 | 3374.0 | 0.444 | 0.6 | 0.4175% and 0.3796% and 0.5358% | 0.5526% and 0.5457% and 0.7144% | 115.697 and 116.603 and 118.647 | 8143 and 8429 and 8399 | 120.9 | 4138.0 | 0.563 | 0.9 | 0.4763% and 0.5673% and 0.6459% | 0.9922% and 0.9996% and 0.6321% | 120.224 and 120.771 and 121.802 | 4041.68 and 3853.68 and 4517.41 | 7559 and 7403 and 7277 | 115.2 | 2088.0 | 9.5 | % of necrotic and late apoptotic cells (PI positive); cell toxicity level (50 uM): 67% and 67.1%; inhibition of cell proliferation (in words): inhibited cell proliferation at 50 μM concentration to the same level as Vorinostat; All Targets.PI negative.casp positive (%) (50 uM): 10.5117% and 9.102% and 8.933%; All Targets.PI positive (%) (50 uM): 65.2916% and 67.7168% and 68.1969%; Nuclei Area wv1 (50 uM): 113.454 and 115.571 and 116.43; Nuclei Intensity wv1 (50 uM): 1984.47 and 1672.21 and 2607.1; Nuclei Count wv1 (50 uM): 2521 and 2571 and 2418; effect on HepG2 cell death / apoptosis compared with Vorinostat (in words): activity profile was the closest to Vorinostat; also recorded: active; cytotoxic effects (in words): did not demonstrate any significant cytotoxic effects; effect on cell proliferation (in words): did not have any significant effects
